Data on one compound can be found in patent US5595756A, “Liposomal compositions for enhanced retention of bioactive agents” (Inex Pharmaceuticals Corporation, priority 1993, dated 1997).

Series [1] can be described thus: Drug induced weight change in P388-bearing mice (% wt change on day 7). Type of series: in vivo, BDF1 mice. Particulars: i.v. The text has this:
Animal weights and mortality were monitored daily.

Series [2] relates to P388 lymphocytic leukemia. The series can be described thus: P388 antitumor activity (murine lymphocytic leukemia model), free and liposomal vincristine i.v. Particulars: for Median Survival / 60-day Survival: i.v.; for Median Survival: saline control 10.0; for 60-day Survival: survivors/total; for % ILS (increase in life span): from median survival, treated vs saline control.
Method: The antitumor effects of liposomal vincristine were monitored using the P388 lymphocytic leukemia model. BDF1 mice (5 per group) were injected i.p. with 1×10^6 P388 cells. The indicated doses of saline or liposomal vincristine were administered (i.v.) 24 h after tumor inoculation. Animal weights and mortality were monitored daily. Mean and median survival times as well as the statistical significance of the results were determined using the Mann-Whitney-Wilcoxon procedure.
Murine P388 antitumor activity of the DSPC/Chol/GM1 pH 2 liposomal vincristine preparation was compared to free drug and DSPC/Chol pH 4 liposomal vincristine (Table I below).

[3] abbreviates: drug dose 1.0 mg/kg, lipid dose 10 mg/kg.
The mark [4] stands for this setting: drug dose 2.0 mg/kg, lipid dose 20 mg/kg.
Where [5] appears, read: drug dose 3.0 mg/kg, lipid dose 30 mg/kg.

The structures appear in SMILES notation.

Consider `CC[C@]1(O)C[C@H]2CN(CCc3c([nH]c4ccccc34)[C@@](C(=O)OC)(c3cc4c(cc3OC)N(C=O)[C@H]3[C@@](O)(C(=O)OC)[C@H](OC(C)=O)[C@]5(CC)C=CCN6CC[C@]43[C@@H]65)C2)C1` [Free Vincristine], for which the “% wt change on day 7” value in series [1] (setting [3]) is “+1.9%”; in series [1] (setting [4]), “+0.5%”; in series [1] (setting [5]), -13.4%. The figures for the “Median Survival” value in series [2] (setting [3]), in series [2] (setting [4]) and in series [2] (setting [5]) were 14.0 days, 15.0 days and 16.0 days, respectively. In addition, the “60-day Survival” value in series [2] (setting [3]), in series [2] (setting [4]) and in series [2] (setting [5]) was 0/5 throughout. The “% ILS (increase in life span)” value came to 40% in series [2] (drug dose 1.0 mg/kg), 50% in series [2] (drug dose 2.0 mg/kg) and 60% in series [2] (drug dose 3.0 mg/kg). The long-term survivors result in series [2] (long-term = >70 days) is “No long-term survivors”.
